Source: patent US4110327A, “2,3 Diketo-piperazinocarbonylamino alkanoic acids and derivatives” (Toyama Chemical Co., Ltd., priority 1974, dated 1978)
Values after ≈ are worked out from the molar mass of the structure shown.

Key:
Format in all cases: cell-based
Shigella flexneri = assay: MIC against clinical isolates; settings: unit assumed
Method: (§1) The minimum inhibitory concentrations (MIC) was determined by the plate method disclosed in "Chemotherapy" (Japan), Vol. 16, (1968), pages 98 - 99. The culture medium used was a Heart infusion agar (pH 7.4). The number of the cells per plate used in the inoculum as 10^4 (10^6 cells/ml).
(§2) MIC was determined in the same manner as in the preceding paragraph (1).

Shigella sonnei = assay: MIC against clinical isolates; settings: clinical isolate JS 11232; unit assumed
Method: as §1, §2

Salmonella typhi = assay: MIC against clinical isolates; settings: unit assumed
Staphylococcus aureus = assay: MIC against clinical isolates; settings: unit assumed
Salmonella typhi-murium = assay: MIC against clinical isolates; settings: unit assumed
Pseudomonas aeruginosa = assay: MIC against clinical isolates; settings: unit assumed
Escherichia coli = assay: MIC against clinical isolates; settings: unit assumed
Escherichia coli NIHJ = assay: MIC against standard strain, plate method; settings: unit assumed
Method: as §1

[1] = test system: Staphylococcus aureus 209p; assay: MIC against standard strain, plate method; settings: unit assumed
Method: as §1

[2] = test system: Pseudomonas aeruginosa I.F.O.; assay: MIC against standard strain, plate method; settings: unit assumed
Method: as §1

Proteus vulgaris 3027 = assay: MIC against standard strain, plate method; settings: Proteus vulgaris 3027, standard strain; unit assumed
Method: as §1

Klebsiella pneumoniae [3] = assay: MIC against clinical isolates; settings: unit assumed
Klebsiella pneumoniae [4] = assay: MIC against standard strain, plate method; settings: unit assumed
Method: as §1

[5] = clinical isolate GN (number not given; Table 5-3)

For `CC(=O)N1CCN(C(=O)N[C@@H](C(=O)N[C@@H]2C(=O)N3[C@@H]2SC(C)(C)[C@@H]3C(=O)O)c2ccccc2)C(=O)C1` [compound 1], the MIC (Shigella flexneri; clinical isolate JS 11215) was 100 µg/mL (≈ 193 µM), the MIC (Shigella flexneri; clinical isolate JS 11839) was 3.13 µg/mL (≈ 6.05 µM) and the MIC (Shigella sonnei) was > 200 µg/mL. It also gave an MIC (Salmonella typhi; clinical isolate SL 819) of 6.25 µg/mL (≈ 12.1 µM), an MIC (Salmonella typhi; clinical isolate SL 2169) of 6.25 µg/mL (≈ 12.1 µM) and an MIC (Staphylococcus aureus; clinical isolate F-2) of 3.13 µg/mL (≈ 6.05 µM). For the same molecule, the MIC (Staphylococcus aureus; clinical isolate F-5) was > 200 µg/mL, the MIC (Staphylococcus aureus; clinical isolate MS 8596) was 3.13 µg/mL (≈ 6.05 µM) and the MIC (Staphylococcus aureus; clinical isolate MS 8619) was 1.57 µg/mL (≈ 3.03 µM). For the same molecule, the MIC (Staphylococcus aureus; clinical isolate MS 8684) was 3.13 µg/mL (≈ 6.05 µM), the MIC (Staphylococcus aureus; clinical isolate MS 8713) was 3.13 µg/mL (≈ 6.05 µM) and the MIC (Salmonella typhi-murium; clinical isolate SL 858) was 12.5 µg/mL (≈ 24.2 µM). For the same molecule, the MIC (Salmonella typhi-murium; clinical isolate SL 2136) was > 200 µg/mL, the MIC (Pseudomonas aeruginosa; clinical isolate GN 82) was 25 µg/mL (≈ 48.3 µM) and the MIC (Pseudomonas aeruginosa; clinical isolate GN 163) was 25 µg/mL (≈ 48.3 µM). It also gave an MIC (Pseudomonas aeruginosa; clinical isolate GN 221) of 25 µg/mL (≈ 48.3 µM), an MIC (Pseudomonas aeruginosa; clinical isolate GN 376) of 25 µg/mL (≈ 48.3 µM) and an MIC (Pseudomonas aeruginosa; clinical isolate GN 383) of 50 µg/mL (≈ 96.6 µM). It also gave an MIC (Pseudomonas aeruginosa; clinical isolate GN 1035) of 100 µg/mL (≈ 193 µM), an MIC (Pseudomonas aeruginosa; clinical isolate GN 1091) of 25 µg/mL (≈ 48.3 µM) and an MIC (Pseudomonas aeruginosa; clinical isolate GN 2565) of 50 µg/mL (≈ 96.6 µM). For the same molecule, the MIC (Pseudomonas aeruginosa; clinical isolate GN 2987) was 25 µg/mL (≈ 48.3 µM), the MIC (Pseudomonas aeruginosa; [5]) was 25 µg/mL (≈ 48.3 µM) and the MIC (Pseudomonas aeruginosa; clinical isolate S-1) was 50 µg/mL (≈ 96.6 µM). For the same molecule, the MIC (Pseudomonas aeruginosa; clinical isolate S-2) was 100 µg/mL (≈ 193 µM), the MIC (Pseudomonas aeruginosa; clinical isolate S-3) was 50 µg/mL (≈ 96.6 µM) and the MIC (Pseudomonas aeruginosa; clinical isolate S-4) was 50 µg/mL (≈ 96.6 µM). For the same molecule, the MIC (Escherichia coli; clinical isolate GN 3465) was 200 µg/mL (≈ 386 µM), the MIC (Escherichia coli; clinical isolate K-2) was 25 µg/mL (≈ 48.3 µM) and the MIC (Escherichia coli; clinical isolate K-3) was > 200 µg/mL. For the same molecule, the MIC (Escherichia coli NIHJ) was < 1.57 µg/mL, the MIC [1] was < 1.57 µg/mL and the MIC [2] was 25 µg/mL (≈ 48.3 µM). For the same molecule, the MIC (Proteus vulgaris 3027) was 3.13 µg/mL (≈ 6.05 µM), the MIC (Klebsiella pneumoniae [3]; clinical isolate GN 917) was 25 µg/mL (≈ 48.3 µM) and the MIC (Klebsiella pneumoniae [3]; clinical isolate GN 3850) was 25 µg/mL (≈ 48.3 µM). For the same molecule, the MIC (Klebsiella pneumoniae [3]; clinical isolate GN 4081) was > 200 µg/mL and the MIC (Klebsiella pneumoniae [3]; clinical isolate GN 4117) was 200 µg/mL (≈ 386 µM).
Work on `CCCCN1CCN(C(=O)N[C@@H](C(=O)N[C@@H]2C(=O)N3[C@@H]2SC(C)(C)[C@@H]3C(=O)O)c2ccccc2)C(=O)C1` [compound 14] yielded an MIC (Shigella flexneri; clinical isolate JS 11215) of 25 µg/mL (≈ 47 µM), an MIC (Shigella sonnei) of 25 µg/mL (≈ 47 µM) and an MIC (Salmonella typhi; clinical isolate SL 819) of 6.25 µg/mL (≈ 11.8 µM). The MIC (Salmonella typhi; clinical isolate SL 2169) was 3.13 µg/mL (≈ 5.89 µM), the MIC (Staphylococcus aureus; clinical isolate F-1) was 12.5 µg/mL (≈ 23.5 µM) and the MIC (Staphylococcus aureus; clinical isolate F-5) was 200 µg/mL (≈ 376 µM). For the same molecule, the MIC (Staphylococcus aureus; clinical isolate MS 8619) was 0.79 µg/mL (≈ 1.49 µM), the MIC (Salmonella typhi-murium; clinical isolate SL 858) was 1.57 µg/mL (≈ 2.95 µM) and the MIC (Salmonella typhi-murium; clinical isolate SL 2136) was 200 µg/mL (≈ 376 µM). For the same molecule, the MIC (Pseudomonas aeruginosa; clinical isolate GN 82) was 25 µg/mL (≈ 47 µM), the MIC (Pseudomonas aeruginosa; clinical isolate GN 163) was 25 µg/mL (≈ 47 µM) and the MIC (Pseudomonas aeruginosa; clinical isolate GN 221) was 25 µg/mL (≈ 47 µM). For the same molecule, the MIC (Pseudomonas aeruginosa; clinical isolate GN 376) was 50 µg/mL (≈ 94 µM), the MIC (Pseudomonas aeruginosa; clinical isolate GN 383) was 50 µg/mL (≈ 94 µM) and the MIC (Pseudomonas aeruginosa; clinical isolate GN 1035) was 50 µg/mL (≈ 94 µM). The MIC (Pseudomonas aeruginosa; clinical isolate GN 1091) was 25 µg/mL (≈ 47 µM), the MIC (Pseudomonas aeruginosa; clinical isolate GN 2565) was 50 µg/mL (≈ 94 µM) and the MIC (Pseudomonas aeruginosa; clinical isolate GN 2987) was 12.5 µg/mL (≈ 23.5 µM). For the same molecule, the MIC (Pseudomonas aeruginosa; [5]) was 50 µg/mL (≈ 94 µM), the MIC (Pseudomonas aeruginosa; clinical isolate S-1) was 50 µg/mL (≈ 94 µM) and the MIC (Pseudomonas aeruginosa; clinical isolate S-2) was 50 µg/mL (≈ 94 µM). For the same molecule, the MIC (Pseudomonas aeruginosa; clinical isolate S-3) was 100 µg/mL (≈ 188 µM), the MIC (Pseudomonas aeruginosa; clinical isolate S-4) was 50 µg/mL (≈ 94 µM) and the MIC (Escherichia coli; clinical isolate GN 3465) was 50 µg/mL (≈ 94 µM). The MIC (Escherichia coli; clinical isolate K-2) was 12.5 µg/mL (≈ 23.5 µM), the MIC (Escherichia coli; clinical isolate K-3) was 200 µg/mL (≈ 376 µM) and the MIC (Escherichia coli NIHJ) was < 1.57 µg/mL. The MIC [1] was < 1.57 µg/mL, the MIC [2] was 25 µg/mL (≈ 47 µM) and the MIC (Proteus vulgaris 3027) was < 1.57 µg/mL. The MIC (Klebsiella pneumoniae [3]; clinical isolate GN 917) was 25 µg/mL (≈ 47 µM), the MIC (Klebsiella pneumoniae [3]; clinical isolate GN 3850) was 12.5 µg/mL (≈ 23.5 µM) and the MIC (Klebsiella pneumoniae [3]; clinical isolate GN 4081) was 50 µg/mL (≈ 94 µM). For the same molecule, the MIC (Klebsiella pneumoniae [3]; clinical isolate GN 4117) was 50 µg/mL (≈ 94 µM).
For `Cc1nnc(SCC2=C(C(=O)O)N3C(=O)[C@@H](NC(=O)Cn4cnnn4)[C@H]3SC2)s1` [Sodium Cephazolin, SodiumCephazolin, reference compound], the MIC (Staphylococcus aureus; clinical isolate F-1) was 0.78 µg/mL, the MIC (Staphylococcus aureus; clinical isolate F-2) was < 0.4 µg/mL and the MIC (Staphylococcus aureus; clinical isolate F-3) was < 0.4 µg/mL. The MIC (Staphylococcus aureus; clinical isolate F-4) was < 0.4 µg/mL, the MIC (Staphylococcus aureus; clinical isolate F-5) was 0.78 µg/mL and the MIC (Staphylococcus aureus; clinical isolate MS 8588) was < 0.4 µg/mL. The MIC (Staphylococcus aureus; clinical isolate MS 8596) was < 0.4 µg/mL, the MIC (Staphylococcus aureus; clinical isolate MS 8619) was < 0.4 µg/mL and the MIC (Staphylococcus aureus; clinical isolate MS 8684) was < 0.4 µg/mL. For the same molecule, the MIC (Staphylococcus aureus; clinical isolate MS 8713) was < 0.4 µg/mL, the MIC (Pseudomonas aeruginosa; clinical isolate GN 82) was > 200 µg/mL and the MIC (Pseudomonas aeruginosa; clinical isolate GN 163) was > 200 µg/mL. The MIC (Pseudomonas aeruginosa; clinical isolate GN 221) was > 200 µg/mL, the MIC (Pseudomonas aeruginosa; clinical isolate GN 244) was > 200 µg/mL and the MIC (Pseudomonas aeruginosa; clinical isolate GN 376) was > 200 µg/mL. The MIC (Pseudomonas aeruginosa; clinical isolate GN 383) was > 200 µg/mL, the MIC (Pseudomonas aeruginosa; clinical isolate GN 1035) was > 200 µg/mL and the MIC (Pseudomonas aeruginosa; clinical isolate GN 1091) was > 200 µg/mL. For the same molecule, the MIC (Pseudomonas aeruginosa; clinical isolate GN 2565) was > 200 µg/mL, the MIC (Pseudomonas aeruginosa; clinical isolate GN 2987) was > 200 µg/mL and the MIC (Pseudomonas aeruginosa; clinical isolate S-1) was > 200 µg/mL. For the same molecule, the MIC (Pseudomonas aeruginosa; clinical isolate S-2) was > 200 µg/mL, the MIC (Pseudomonas aeruginosa; clinical isolate S-3) was > 200 µg/mL and the MIC (Pseudomonas aeruginosa; clinical isolate S-4) was > 200 µg/mL. The MIC (Escherichia coli; clinical isolate GN 3435) was 1.56 µg/mL, the MIC (Escherichia coli; clinical isolate GN 3452) was 1.56 µg/mL and the MIC (Escherichia coli; clinical isolate GN 3481) was 1.56 µg/mL. The MIC (Escherichia coli; clinical isolate GN 3611) was 25 µg/mL, the MIC (Escherichia coli; clinical isolate K-1) was 1.56 µg/mL and the MIC (Escherichia coli; clinical isolate K-2) was 1.56 µg/mL. The MIC (Escherichia coli; clinical isolate K-3) was > 200 µg/mL, the MIC (Escherichia coli; clinical isolate K-4) was 3.13 µg/mL and the MIC (Klebsiella pneumoniae [4]) was 200 µg/mL. The MIC (Escherichia coli NIHJ) was < 1.57 µg/mL, the MIC [1] was < 1.57 µg/mL and the MIC [2] was > 200 µg/mL. For the same molecule, the MIC (Proteus vulgaris 3027) was 1.57 µg/mL, the MIC (Klebsiella pneumoniae [3]; clinical isolate GN 917) was 1.56 µg/mL and the MIC (Klebsiella pneumoniae [3]; clinical isolate GN 4081) was 3.13 µg/mL. For the same molecule, the MIC (Klebsiella pneumoniae [3]; clinical isolate GN 4117) was 3.13 µg/mL.
`CC1(C)S[C@@H]2[C@H](NC(=O)C(C(=O)O)c3ccccc3)C(=O)N2[C@H]1C(=O)O` (stereo partly shown) [Sodium Carbenicillum, reference compound] was tested, and the MIC (Shigella flexneri; clinical isolate JS 11215) was > 200 µg/mL, the MIC (Shigella sonnei) was > 200 µg/mL and the MIC (Salmonella typhi; clinical isolate SL 819) was 6.25 µg/mL. For the same molecule, the MIC (Salmonella typhi; clinical isolate SL 2169) was 3.13 µg/mL, the MIC (Salmonella typhi-murium; clinical isolate SL 858) was 12.5 µg/mL and the MIC (Salmonella typhi-murium; clinical isolate SL 2136) was > 200 µg/mL.
